This is an account of results in US10703764B2, “Benzopiperazine compositions as BET bromodomain inhibitors” (FORMA Therapeutics, Inc., priority 2013, dated 2020).

Where two headings read alike, the source gives them in different places.

The target of one test is T1, BRD4 BD1 (Homo sapiens, UniProt O60885).
T1 construct: made in house
The test is described as follows: AlphaScreen binding assay, BRD4 Bromodomain 1. A digest of the protocol:
(§1)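 An AlphaScreen competition format was used with His-BRD4 BD1 or BD2 and biotin-H4 K5/8/12/16-acetyl peptide, each at matched final levels of 50 nM (BD1) or 100 nM (BD2). Incubation in HEPES/NaCl buffer with 0.1% BSA and 0.01% Triton X-100 ran ≥1 h before IC50 determination.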
(In general: In Alpha technology, singlet oxygen from a donor bead excites a nearby acceptor bead.)

The next test concerns the target T2, BRD4 BD2 (Homo sapiens, UniProt O60885).
T2 construct: made in house
Nature of the test: AlphaScreen binding assay, BRD4 Bromodomain 2. A digest of the protocol:
as §1

The next test has as its system MV4-11 cells. Nature of the test: Oncology cell growth assay (3-day proliferation, CellTiter-Glo). Type of test: cell-based. Particulars: Homo sapiens, AML cell line MV4-11, 72 hours, compounds grouped by IC50 range, read-out: MV4-11 IC50 (inhibition of proliferation, gIC50). The essentials:
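Compounds were serially diluted 3-fold in DMSO, giving final well concentrations from 10 down to 0.0045 μM. MV4-11 cells were then seeded at 3000 cells/well in RPMI 1640 with 10% FBS and incubated 72 hours. CellTiter-Glo signal was measured and gIC50 obtained by four-parameter logistic regression.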

Turning to `CC(=O)N1c2ccc(-c3cnn(Cc4ccn(C)n4)c3)cc2N(C(=O)C2CC2)C[C@@H]1C` [Example I-682], the IC50 was in the range of 100 to 1000 nM at BRD4 BD1; 50 to 500 nM at BRD4 BD2; 100 to 500 nM in the test with MV4-11 cells (MV4-11, 72 h).
As to `CCS(=O)(=O)c1cccc(-c2ccc3c(c2)N(C(=O)OC2CCCCC2)C[C@H](C)N3C(C)=O)c1` [Example I-1245], the IC50 at BRD4 BD1 fell in the range of 100 to 1000 nM; at BRD4 BD2, 50 to 500 nM; in the test on MV4-11 cells (MV4-11, 72 h), 100 to 500 nM.
On to `CCOC(=O)N1C[C@H](C)N(C(C)=O)c2ccc(-c3ccc(S(=O)(=O)CC)cc3)cc21` [Example I-1029], for which the IC50 lay in the range of 1000 to 10000 nM at BRD4 BD1; 50 to 500 nM at BRD4 BD2; 100 to 500 nM in the test on MV4-11 cells (MV4-11, 72 h).
The matching figures for `CC(=O)N1c2ccc(-c3cnn(C4COC4)c3)cc2N(C(=O)OCC(Cl)Cl)C[C@@H]1C` [Example I-62, (S)-2,2-dichloroethyl 4-acetyl-3-methyl-7-(1-(oxetan-3-yl)-1H-pyrazol-4-yl)-3,4-dihydroquinoxaline-1(2H)-carboxylate]: 100 to 1000 nM, 50 to 500 nM and 100 to 500 nM.
The corresponding values for `CC(=O)N1c2ccc(-c3cnn(CCO)c3)cc2N(C(=O)Oc2ccccn2)C[C@@H]1C` [Example I-1334] are 100 to 1000 nM, 50 to 500 nM and 100 to 500 nM.
The matching figures for `COC(=O)N1c2ccc(-c3cnn(CC4CCS(=O)(=O)CC4)c3)cc2N(C(=O)OC(C)C)C[C@@H]1C` [Example I-624]: 100 to 1000 nM, 50 to 500 nM and over 500 nM.
Take `CCOC(=O)N1C[C@H](C)N(C(C)=O)c2ccc(-c3ccc(S(=O)(=O)C4CC4)cc3)cc21` [Example I-1033]: the IC50 at BRD4 BD1 was in the range of 100 to 1000 nM; at BRD4 BD2, 50 to 500 nM; with MV4-11 cells (MV4-11, 72 h), 100 to 500 nM.
The corresponding values for `CC(C)OC(=O)N1C[C@H](C)N(C(=O)C2CC2)c2ccc(-c3cnn(C(C)(C)C)c3)cc21` [Example I-331] are 100 to 1000 nM, over 500 nM and over 500 nM.
With `CC(=O)N1c2ccc(-c3cnn(C4CCC4)c3)cc2N(C(=O)OC(C)C)C[C@@H]1C` [Example I-24, (S)-isopropyl 4-acetyl-7-(1-cyclobutyl-1H-pyrazol-4-yl)-3-methyl-3,4-dihydroquinoxaline-1(2H)-carboxylate], the IC50 on BRD4 BD1 was under 100 nM; on BRD4 BD2 it was 50 to 500 nM; with MV4-11 cells (MV4-11, 72 h), 100 to 500 nM.
The corresponding values for `CC(=O)N1c2ccc(-c3cnn(CC4CCOCC4)c3)cc2N(C(=O)OC(C)C)C[C@@H]1C` [Example I-608] are 100 to 1000 nM, 50 to 500 nM and 100 to 500 nM.
The matching figures for `CC(=O)N1c2ccc(-c3cnn(C(C)(C)CO)c3)cc2N(C(=O)Oc2ccc(F)cc2)C[C@@H]1C` [Example I-1020]: 100 to 1000 nM, under 50 nM and 100 to 500 nM.
The corresponding values for `CC(=O)N1c2ccc(-c3ccc(S(=O)(=O)CC4CC4)cc3)cc2N(C(=O)OC2CCOCC2)C[C@@H]1C` [Example I-1238] are 100 to 1000 nM, 50 to 500 nM and over 500 nM.
With `CC(=O)N1c2ccc(-c3cnn(Cc4nonc4C)c3)cc2N(C(=O)C2CC2)C[C@@H]1C` [Example I-147, (S)-1-(4-(cyclopropanecarbonyl)-2-methyl-6-(1-((4-methyl-1,2,5-oxadiazol-3-yl)methyl)-1H-pyrazol-4-yl)-3,4-dihydroquinoxalin-1 (2H)-yl)ethanone], the IC50 on BRD4 BD1 was in the range of 100 to 1000 nM; on BRD4 BD2 it was 50 to 500 nM; with MV4-11 cells (MV4-11, 72 h) it was 100 to 500 nM.
Turning to `CC(=O)N1c2ccc(-c3ccc(S(=O)(=O)CC(C)C)cc3)cc2N(C(=O)OC2CCOCC2)C[C@@H]1C` [Example I-1240], the IC50 at BRD4 BD1 lay in the range of 100 to 1000 nM; on BRD4 BD2, 50 to 500 nM; in the test with MV4-11 cells (MV4-11, 72 h), 100 to 500 nM.
The matching figures for `CC(=O)N1c2ccc(-c3cnn(Cc4ccncc4)c3)cc2N(C(=O)OC(C)C)C[C@@H]1C` [Example I-117, (S)-isopropyl 4-acetyl-3-methyl-7-(1-(pyridin-4-ylmethyl)-1H-pyrazol-4-yl)-3,4-dihydroquinoxaline-1(2H)-carboxylate]: 100 to 1000 nM, 50 to 500 nM and 100 to 500 nM.
For the compound `CC(C)OC(=O)N1CC(C)N(C(=O)C2CC2)c2ccc(-c3cnn(Cc4c[nH]cn4)c3)cc21` (stereo not drawn) [Example I-616], the IC50 was in the range of 100 to 1000 nM on BRD4 BD1; 50 to 500 nM at BRD4 BD2; 100 to 500 nM in the test with MV4-11 cells (MV4-11, 72 h).
The corresponding values for `CC(=O)N1c2ccc(-c3ccc(S(=O)(=O)N4CCOCC4)cc3)cc2N(C(=O)c2ccco2)C[C@@H]1C` [Example I-275] are 1000 to 10000 nM, 50 to 500 nM and 100 to 500 nM.
`CC(=O)N1c2ccc(-c3cnn(C4CC4)c3)cc2N(c2noc3ccccc23)C[C@@H]1C` [Example I-95, (S)-1-(4-(benzo[d]isoxazol-3-yl)-6-(1-cyclopropyl-1H-pyrazol-4-yl)-2-methyl-3,4-dihydroquinoxalin-1(2H)-yl)ethanone]: the IC50 on BRD4 BD1 is under 100 nM; at BRD4 BD2, under 50 nM; in the test on MV4-11 cells it was 100 to 500 nM.
As for `CCS(=O)(=O)Nc1ccc(-c2ccc3c(c2)N(C(=O)OC2CCOCC2)C[C@H](C)N3C(C)=O)cc1` [Example I-1270], the IC50 was in the range of 100 to 1000 nM on BRD4 BD1; 50 to 500 nM on BRD4 BD2; 100 to 500 nM with MV4-11 cells (MV4-11, 72 h).
The corresponding values for `CC(=O)N1c2ccc(-c3ccc(S(C)(=O)=O)cn3)cc2N(C(=O)c2ccco2)C[C@@H]1C` [Example I-407] are 1000 to 10000 nM, under 50 nM and over 500 nM.
The matching figures for `CC(=O)N1c2ccc(-c3ccc4c(c3)CCCN4S(C)(=O)=O)cc2N(C(=O)C2CC2)C[C@@H]1C` [Example I-1157]: 100 to 1000 nM, under 50 nM and 100 to 500 nM.
The corresponding values for `CNC(=O)c1cccc(-c2ccc3c(c2)N(C(=O)c2ccco2)C[C@H](C)N3C(C)=O)c1` [Example I-801] are 100 to 1000 nM, 50 to 500 nM and over 500 nM.
In the case of `CC(C)OC(=O)N1C[C@H](C)N(C(=O)C2CC2)c2ccc(-c3cnn(C4COC4)c3)cc21` [Example I-317], the IC50 on BRD4 BD1 fell in the range of 100 to 1000 nM; on BRD4 BD2 it was 50 to 500 nM; with MV4-11 cells (MV4-11, 72 h), 100 to 500 nM.
Regarding `CCN(CC)S(=O)(=O)c1cc(-c2ccc3c(c2)N(C(=O)C2CC2)C[C@H](C)N3C(C)=O)ccc1OC` [Example I-1112], the IC50 on BRD4 BD1 lay within 1000 to 10000 nM; at BRD4 BD2 it was 50 to 500 nM; with MV4-11 cells (MV4-11, 72 h), 100 to 500 nM.
The corresponding values for `CC(=O)N1c2ccc(-c3ccc(N(C)S(C)(=O)=O)cc3)cc2N(C(=O)OC(C)C)C[C@@H]1C` [Example I-346] are 100 to 1000 nM, 50 to 500 nM and 100 to 500 nM.
The corresponding values for `CC(=O)N1c2ccc(-c3ccc(S(=O)(=O)CC(C)C)cc3)cc2N(C(=O)C2CC2)C[C@@H]1C` [Example I-1078] are 1000 to 10000 nM, 50 to 500 nM and 100 to 500 nM.
The corresponding values for `CC(=O)N1c2ccc(-c3ccc(N4CCCS4(=O)=O)c(F)c3)cc2N(C(=O)C2CCC2)C[C@@H]1C` [Example I-1154] are 1000 to 10000 nM, 50 to 500 nM and over 500 nM.
`CC(=O)N1c2ccc(-c3cnn(CC(=O)O)c3)cc2N(C(=O)OC(C)C)C[C@@H]1C` [Example I-130, (S)-2-(4-(1-acetyl-4-(isopropoxycarbonyl)-2-methyl-1,2,3,4-tetrahydroquinoxalin-6-yl)-1H-pyrazol-1-yl)acetic acid]: the IC50 on BRD4 BD1 is 100 to 1000 nM; at BRD4 BD2 it was 50 to 500 nM; in the test on MV4-11 cells (MV4-11, 72 h), over 500 nM.
For the compound `CNC(=O)CN(C)C(=O)c1ccc(-c2ccc3c(c2)N(C(=O)OC(C)C)C[C@H](C)N3C(C)=O)cc1` [Example I-554], the IC50 on BRD4 BD1 was under 100 nM; on BRD4 BD2, under 50 nM; with MV4-11 cells (MV4-11, 72 h), 100 to 500 nM.
The matching figures for `CC(C)OC(=O)N1C[C@H](C)N(C(=O)C2CC2)c2ccc(-c3cnn(C4CCNCC4)c3)cc21` [Example I-354]: 100 to 1000 nM, 50 to 500 nM and 100 to 500 nM.
For the compound `CNC(=O)c1cccc(-c2ccc3c(c2)N(C(=O)c2ccco2)CCN3C(C)=O)c1` [Example I-868], the IC50 on BRD4 BD1 was over 10000 nM; on BRD4 BD2, over 500 nM; with MV4-11 cells (MV4-11, 72 h), over 500 nM.
Take `COc1cc2c(cc1-c1cnn(C3CC3)c1)N(C(=O)OC(C)C)C[C@H](C)N2C(C)=O` [Example I-210, Isopropyl (S)-4-acetyl-7-(1-cyclopropyl-1H-pyrazol-4-yl)-6-methoxy-3-methyl-3,4-dihydroquinoxaline-1(2H)-carboxylate]: the IC50 on BRD4 BD1 was 1000 to 10000 nM; at BRD4 BD2, over 500 nM; in the test with MV4-11 cells (MV4-11, 72 h) it was over 500 nM.
Take `CC(=O)N1c2ccc(-c3ccc(S(=O)(=O)C4CC4)cc3)cc2N(C(=O)c2ccco2)C[C@@H]1C` [Example I-291]: the IC50 is 100 to 1000 nM at BRD4 BD1; under 50 nM on BRD4 BD2; 100 to 500 nM in the test with MV4-11 cells (MV4-11, 72 h).
Regarding `CC(=O)N1c2ccc(-c3ccc(S(=O)(=O)NCCO)cc3)cc2N(C(=O)c2ccco2)C[C@@H]1C` [Example I-293], the IC50 is 1000 to 10000 nM on BRD4 BD1; under 50 nM at BRD4 BD2; 100 to 500 nM with MV4-11 cells (MV4-11, 72 h).
Consider `CC(=O)N1c2ccc(-c3ccc(S(=O)(=O)C(C)C)cc3)cc2N(C(=O)OC2CCOCC2)C[C@@H]1C` [Example I-1232], for which the IC50 at BRD4 BD1 was 100 to 1000 nM; at BRD4 BD2, 50 to 500 nM; in the test on MV4-11 cells (MV4-11, 72 h) it was 100 to 500 nM.
